The record followed here is patent US20260272895A1, “METHODS AND KITS FOR DELIVERY OF COMPOUNDS INTO CELLS” (Yale University, priority 2023, published 2026).

In experiment [1] the test system is brain cell types. The experiment in a line: In vivo two-photon imaging of mouse cortex after topical cortical administration of fluorophores. How it is done:
(§1) Briefly, animals are anaesthetized via intraperitoneal injections of ketamine/xylazine or via inhaled isoflurane. A region of the skull (3×3 mm) is gently removed with a high-speed drill and the underlying dura is removed. A small glass coverslip is placed over the skull to allow long term optical access for in vivo imaging. Labeling with fluorescent dyes is performed either via intravenous injections or topically application to the cortical surface for 20 min prior to glass cover placement. After recovery, in vivo images are acquired using a two-photon microscope (Bruker Technologies) equipped with a multimodal (fixed wavelength 1040 nm and tunable wavelength) InSight X3 two-photon laser (Spectra Physics) and 20× water immersion objective (Zeiss 1.0N.A.). The two-photon laser is appropriately tuned to excite particular fluorescent dyes and proteins as needed. In selected cases, following in vivo imaging, mice will be sacrificed and perfused for follow up immunohistochemistry and high-resolution confocal imaging (Leica SP8) to further confirm colocalization of dyes and cells expressing particular transporters.
One-month-old wild-type mice were anesthetized using a ketamine/xylazine solution at doses of 100 mg/kg and 10 mg/kg, respectively. The fur around the skull area was shaved, and buprenex (0.1 mg per kg) and carprofen (5 mg per kg) were administered subcutaneously. Mice were kept on a heating pad at 37° C., and anesthesia was periodically monitored. The skin was treated with povidone-iodine solution, followed by cleaning with ethanol, and eye ointment was applied. A small skin section was excised to expose the skull. Thinning of the skull was performed in a circular area, followed by delicately lifting of the remaining skull without harm to the underlying brain. Within the circular region, the dura was gently removed using fine forceps, and a 4 mm cover glass was softly pressed onto the brain surface and affixed to the skull. Fluorescent dyes were applied either through intravenous injections or topically to the cortical surface for 20 minutes before placing the glass cover. A customized head bar was attached either by adhesive (for acute imaging) or permanently implanted (using dental cement, for chronic imaging) onto the skull. Mice were imaged under a two-photon microscope (Prairie Technologies) with a mode-locked MaiTai tunable laser (Spectra Physics). Imaging was performed with a 20× water immersion objective (Zeiss, 1.0NA). Images were captured at depths up to 300 μm from the pial surface using excitation wavelengths ranging from 750 to 950 nm as previously described. Mice undergoing chronic imaging received a recovery period on a heating pad post-surgery, and buprenex (0.1 mg per kg) and carprofen (5 mg per kg) were administered for 3 days.
Batches of 10 compounds were applied through the craniotomy to the cortical surface before placing a cover glass window. No additional washings were performed, and the cover glass was placed, allowing up to 3 hours of imaging of the cortical surface with a two-photon microscope. Following imaging, the data were analyzed to identify potential patterns of cell-specific labeling. […] Positive batches underwent three additional rounds of imaging, with each batch being sequentially split, until a single compound displaying cell-type-specific labeling was identified. As these compounds were not initially purified, the labeling may have resulted from fluorescent byproducts of synthesis. Consequently, large-scale synthesis, purification and characterization (FIGS. 29A-29D) of the identified compounds were conducted. The purified compounds were subsequently retested using in vivo imaging to confirm cell type specificity.
It was reasoned that the best strategy to identify fluorophores with specific affinity to certain cell types and transport mechanisms would be by direct screening in the intact in vivo brain microenvironment. […]

Experiment [2] addresses T1, Slco1a4 (Mus musculus, UniProt Q9EP96).
T1 sequence (Q9EP96 1-670): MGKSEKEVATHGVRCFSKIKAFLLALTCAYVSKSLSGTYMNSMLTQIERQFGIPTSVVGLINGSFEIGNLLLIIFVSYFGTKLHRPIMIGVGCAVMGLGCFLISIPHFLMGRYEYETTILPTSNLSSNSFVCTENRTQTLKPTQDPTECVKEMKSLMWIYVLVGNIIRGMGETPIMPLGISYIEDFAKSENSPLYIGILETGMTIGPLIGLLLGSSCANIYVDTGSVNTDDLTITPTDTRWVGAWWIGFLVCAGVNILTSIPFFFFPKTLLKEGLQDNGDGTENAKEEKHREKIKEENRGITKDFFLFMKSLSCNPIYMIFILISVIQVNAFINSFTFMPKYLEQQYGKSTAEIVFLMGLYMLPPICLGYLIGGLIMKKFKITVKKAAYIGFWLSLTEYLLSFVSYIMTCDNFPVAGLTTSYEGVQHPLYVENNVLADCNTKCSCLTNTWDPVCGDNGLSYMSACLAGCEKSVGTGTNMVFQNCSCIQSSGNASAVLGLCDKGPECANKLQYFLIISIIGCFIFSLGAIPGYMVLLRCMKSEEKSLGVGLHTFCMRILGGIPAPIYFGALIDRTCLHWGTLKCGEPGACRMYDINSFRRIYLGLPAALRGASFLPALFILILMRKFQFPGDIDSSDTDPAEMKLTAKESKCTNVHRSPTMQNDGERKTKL
Nature of the experiment: Uptake by cells ectopically expressing Slco1a4 (in utero electroporation) in live mice. Type of experiment: in vivo. More on the design: FLAG; expressed in transfected cells; host or cells: cortical neurons of live mice, in utero electroporation at E14/E15. The settings on record: topical cortical administration (50 μM where stated). How it is done: IUE is performed at E14 or E15 as previously done. Briefly, timed pregnant mice are anaesthetized with ketamine/xylazine. The abdominal region is shaved, sterilized and a 3 cm midline incision is made in the skin and abdominal muscle. The uterine horns are exposed, and the lateral ventricle of each embryo is pressure injected (Picospritzer II, General Valve) with plasmid DNA (~[…] volume per embryo) at a concentration of […] followed by electroporation with tweezertrodes (50 V, 4-50 ms pulses with I s pulse interval. BTX Harvard Apparatus). The embryos are placed back in the mother womb, and the muscle and skin are sutured. Electroporated pups are aged to postnatal day 30. Imaging is performed through a craniotomy over the transfected hemisphere following dye labeling.
Briefly, animals are anaesthetized via intraperitoneal injections of ketamine/xylazine or via inhaled isoflurane. A region of the skull (3×3 mm) is gently removed with a high-speed drill and the underlying dura is removed. A small glass coverslip is placed over the skull to allow long term optical access for in vivo imaging. […]
One-month-old wild-type mice were anesthetized using a ketamine/xylazine solution at doses of 100 mg/kg and 10 mg/kg, respectively. […] Mice were kept on a heating pad at 37° C., and anesthesia was periodically monitored. […]

Experiment [3] deals with T1, Slco1a4. The experiment in a line: In vivo two-photon imaging in Slco1a4 knockout mice (Oatp1a/1b cluster knockout). More on the design: FLAG; expressed in transfected cells; host or cells: cortical neurons of live mice, in utero electroporation at E14/E15. How it is done:
as §1
One-month-old wild-type mice were anesthetized using a ketamine/xylazine solution at doses of 100 mg/kg and 10 mg/kg, respectively. The fur around the skull area was shaved, and buprenex (0.1 mg per kg) and carprofen (5 mg per kg) were administered subcutaneously. Mice were kept on a heating pad at 37° C., and anesthesia was periodically monitored. The skin was treated with povidone-iodine solution, followed by cleaning with ethanol, and eye ointment was applied. A small skin section was excised to expose the skull. Thinning of the skull was performed in a circular area, followed by delicately lifting of the remaining skull without harm to the underlying brain. Within the circular region, the dura was gently removed using fine forceps, and a 4 mm cover glass was softly pressed onto the brain surface and affixed to the skull. […]

As to `O=S(=O)([O-])c1cc(S(=O)(=O)O)ccc1C1=c2cc3c4c(c2Oc2cc(Br)ccc21)CCC[N+]=4CCC3` [Compound 1, 2-(12-bromo-1,2,3,5,6,7-hexahydrochromeno[2,3-f]pyrido[3,2,1-ij]quinolin-4-ium-9-yl)-5-sulfobenzenesulfonate], the Target result in experiment [1] (cell type taking up the compound in vivo (Table 1)) was “Endothelial”. In addition, the “labeling of other (non-endothelial) cell types” value in experiment [1] (topical application to cortex) was “only endothelial cells are labeled”. In addition, in experiment [1] (topical cortical application), the “endothelial cell labeling/uptake after topical application to the brain” value is “Highly specific labeling of endothelial cells within capillaries”. For the same molecule, in experiment [2], the “uptake by neurons ectopically expressing Slco1a4” value is on record as “only those cells that express SLCO1A2 or SLCO1A4 (as evidenced by the GFP fluorescence (green)) take up compound 1”. Also, in experiment [3] (Oatp1a/1b cluster knockout), the “astrocyte uptake in knockout mice” value was “Astrocyte uptake is seen in the knockout mice”. Further, the “endothelial uptake in Slco1a4 knockout mice” value in experiment [3] (application to cortical surface, concentration not given) is “complete disappearance of endothelial uptake”.

As for `COc1cc2c(c(OC)c1OC)-c1ccc(OC)c(=O)cc1C(NS(=O)(=O)c1ccc(-c3c4ccc(N(C)C)cc4[o+]c4cc(N(C)C)ccc34)c(S(=O)(=O)[O-])c1)CC2` (stereo not drawn) [Compound 47, 2-(3,6-bis(dimethylamino)xanthylium-9-yl)-5-(N-(1,2,3,10-tetramethoxy-9-oxo-5,6,7,9-tetrahydrobenzo[a]heptalen-7-yl)sulfamoyl)benzenesulfonate], the “cellular labeling in cortex” value in experiment [1] (topical cortical administration, 50 μM, wild type mice) is “labeling of endothelial processes (arrow) and cell bodies (arrowhead)”. For the same molecule, the “uptake by neurons ectopically expressing Slco1a4” value in experiment [2] is “marked uptake”. Moreover, in experiment [3] (topical cortical administration 50 μM, compared to wildtype), the “endothelial uptake in Slco1a4 knockout mice” value was “complete elimination of Colchicine-eEDiTS uptake”.
